# Measured values: US20250282794A1 (CURADEV PHARMA LTD, priority 2022, published 2025)
# Target: recombinant full length HPK-1 enzyme (Homo sapiens (Human), UniProt Q92918)
# Test: HPK-1 biochemical enzyme assay (ADP-Glo kinase inhibition)
# Details: recombinant full length HPK-1 6.8 nM, 10 μM ATP, 12.5 μM MBP, 30 mins at 25° C.
# Outline: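 Recombinant full-length human HPK-1 (6.8 nM) incubated 30 min at 25° C. with 10 μM ATP and 12.5 μM swine MBP in 40 mM Tris pH 7.4, 20 mM MgCl2, 50 μM DTT, 0.1 mg/mL BSA. ADP measured by ADP-Glo; IC50 from 10 concentrations, normalized to no-enzyme and vehicle controls.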
# Chain of recombinant full length HPK-1 enzyme (Q92918 whole entry, species assumed): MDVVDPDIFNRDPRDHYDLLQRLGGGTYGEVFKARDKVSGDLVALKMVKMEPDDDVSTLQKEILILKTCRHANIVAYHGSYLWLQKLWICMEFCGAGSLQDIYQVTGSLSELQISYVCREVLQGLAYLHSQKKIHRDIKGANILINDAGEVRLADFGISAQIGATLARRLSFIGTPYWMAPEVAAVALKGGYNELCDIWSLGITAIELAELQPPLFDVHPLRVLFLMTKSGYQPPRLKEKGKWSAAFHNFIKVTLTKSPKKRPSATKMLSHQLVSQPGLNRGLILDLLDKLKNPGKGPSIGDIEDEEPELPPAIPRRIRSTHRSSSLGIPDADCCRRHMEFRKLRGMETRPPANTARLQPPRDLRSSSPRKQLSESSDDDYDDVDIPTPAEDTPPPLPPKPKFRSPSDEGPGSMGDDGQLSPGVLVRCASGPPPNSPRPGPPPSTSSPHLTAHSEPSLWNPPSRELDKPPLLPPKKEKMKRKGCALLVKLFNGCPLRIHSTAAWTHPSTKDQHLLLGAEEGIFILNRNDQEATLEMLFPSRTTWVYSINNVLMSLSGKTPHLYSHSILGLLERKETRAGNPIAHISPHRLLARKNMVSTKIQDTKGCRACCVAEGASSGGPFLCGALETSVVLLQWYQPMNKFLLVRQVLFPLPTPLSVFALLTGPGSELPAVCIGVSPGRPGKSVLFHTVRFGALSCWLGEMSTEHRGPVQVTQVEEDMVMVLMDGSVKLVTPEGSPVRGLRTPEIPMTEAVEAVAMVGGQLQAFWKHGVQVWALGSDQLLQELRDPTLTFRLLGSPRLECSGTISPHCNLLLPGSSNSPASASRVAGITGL
row,IC50 [µM],SMILES
1,0.01 to 0.1,"CNC(=O)N1CCN(c2ccc(NC(=O)c3c(Nc4cnc5c(c4C)NCCO5)cc[nH]c3=O)cc2)CC1 [Example 287, N-methyl-4-(4-(4-((8-methyl-2,3-dihydro-1H-pyrido[2,3-b][1,4]oxazin-7-yl)amino)-2-oxo-1,2-dihydropyridine-3-carboxamido)phenyl)piperazine-1-carboxamide]"
2,≤ 0.01,"Cc1c(Nc2cc[nH]c(=O)c2C(=O)Nc2ccc(N3CCN(c4ccncc4)CC3)cc2)cnc2c1NCCO2 [Example 288, 4-((8-methyl-2,3-dihydro-1H-pyrido[2,3-b][1,4]oxazin-7-yl)amino)-2-oxo-N-(4-(4-(pyridin-4-yl)piperazin-1-yl)phenyl)-1,2-dihydropyridine-3-carboxamide]"
3,≤ 0.01,"COCCN(C)C(=O)N1CCN(c2ccc(NC(=O)c3c(Nc4cnc5c(c4C)NCCO5)cc[nH]c3=O)cc2)CC1 [Example 290, N-(2-methoxyethyl)-N-methyl-4-(4-(4-((8-methyl-2,3-dihydro-1H-pyrido[2,3-b][1,4]oxazin-7-yl)amino)-2-oxo-1,2-dihydropyridine-3-carboxamido)phenyl)piperazine-1-carboxamide]"
4,0.01 to 0.1,"Cc1c(Nc2cc[nH]c(=O)c2C(=O)Nc2ccc(N3CCN(C)CC3)c(N(C)C)c2)cnc2c1NCCO2 [Example 291, N-(3-(dimethylamino)-4-(4-methylpiperazin-1-yl)phenyl)-4-((8-methyl-2,3-dihydro-1H-pyrido[2,3-b][1,4]oxazin-7-yl)amino)-2-oxo-1,2-dihydropyridine-3-carboxamide]"
5,≤ 0.01,"Cc1c(Nc2cc[nH]c(=O)c2C(=O)Nc2ccc(N3CCN(C4CCN(C)CC4)CC3)cc2)cnc2c1NCCO2 [Example 292, 4-((8-methyl-2,3-dihydro-1H-pyrido[2,3-b][1,4]oxazin-7-yl)amino)-N-(4-(4-(1-methylpiperidin-4-yl)piperazin-1-yl)phenyl)-2-oxo-1,2-dihydropyridine-3-carboxamide]"
6,≤ 0.01,"Cc1c(Nc2cc[nH]c(=O)c2C(=O)Nc2ccc(N3CCN(C(=O)[C@@H]4C[C@@H]4F)CC3)cc2)cnc2c1NCCO2 [Example 293, N-(4-(4-((1S,2S)-2-fluorocyclopropane-1-carbonyl)piperazin-1-yl)phenyl)-4-((8-methyl-2,3-dihydro-1H-pyrido[2,3-b][1,4]oxazin-7-yl)amino)-2-oxo-1,2-dihydropyridine-3-carboxamide]"
7,≤ 0.01,"Cc1c(Nc2cc[nH]c(=O)c2C(=O)Nc2ccc(N3CCN(C)CC3)c(N)c2)cnc2c1NCC(C)O2 (stereo not drawn) [Example 294, N-(3-amino-4-(4-methylpiperazin-1-yl)phenyl)-4-((3,8-dimethyl-2,3-dihydro-1H-pyrido[2,3-b][1,4]oxazin-7-yl)amino)-2-oxo-1,2-dihydropyridine-3-carboxamide]"
8,0.01 to 0.1,"CNc1cc(NC(=O)c2c(Nc3cnc4c(c3C)NCCO4)cc[nH]c2=O)ccc1N1CCN(C)CC1 [Example 295, 4-((8-methyl-2,3-dihydro-1H-pyrido[2,3-b][1,4]oxazin-7-yl)amino)-N-(3-(methylamino)-4-(4-methylpiperazin-1-yl)phenyl)-2-oxo-1,2-dihydropyridine-3-carboxamide]"
9,0.1 to 1,"Cc1c(Nc2cc[nH]c(=O)c2C(=O)Nc2ccc3nc(NC(=O)[C@@H]4C[C@@H]4F)sc3c2)cnc2c1NCCO2 [Example 296, N-(2-((1S,2S)-2-fluorocyclopropane-1-carboxamido)benzo[d]thiazol-6-yl)-4-((8-methyl-2,3-dihydro-1H-pyrido[2,3-b][1,4]oxazin-7-yl)amino)-2-oxo-1,2-dihydropyridine-3-carboxamide]"
10,0.1 to 1,"Cc1c(Nc2cc[nH]c(=O)c2C(=O)Nc2ccc3sc(NC(=O)[C@@H]4C[C@@H]4F)nc3c2)cnc2c1NCCO2 [Example 297, N-(2-((1S,2S)-2-fluorocyclopropane-1-carboxamido)benzo[d]thiazol-5-yl)-4-((8-methyl-2,3-dihydro-1H-pyrido[2,3-b][1,4]oxazin-7-yl)amino)-2-oxo-1,2-dihydropyridine-3-carboxamide]"
11,≤ 0.01,"Cc1c(Nc2cc[nH]c(=O)c2C(=O)Nc2ccc(N3CCN(CC(=O)N(C)C)CC3)cc2)cnc2c1NCCO2 [Example 298, N-(4-(4-(2-(dimethylamino)-2-oxoethyl)piperazin-1-yl)phenyl)-4-((8-methyl-2,3-dihydro-1H-pyrido[2,3-b][1,4]oxazin-7-yl)amino)-2-oxo-1,2-dihydropyridine-3-carboxamide]"
12,0.01 to 0.1,"CN1CCN(c2ccc(NC(=O)c3c(Nc4cnc5c(c4C#N)NCCO5)cc[nH]c3=O)cc2)CC1 [Example 299, 4-((8-cyano-2,3-dihydro-1H-pyrido[2,3-b][1,4]oxazin-7-yl)amino)-N-(4-(4-methylpiperazin-1-yl)phenyl)-2-oxo-1,2-dihydropyridine-3-carboxamide]"
13,≤ 0.01,"Cc1c(Nc2cc[nH]c(=O)c2C(=O)Nc2ccc(N3CCC(C(C)(C)O)CC3)cc2)cnc2c1NCCO2 [Example 300, N-(4-(4-(2-hydroxypropan-2-yl)piperidin-1-yl)phenyl)-4-((8-methyl-2,3-dihydro-1H-pyrido[2,3-b][1,4]oxazin-7-yl)amino)-2-oxo-1,2-dihydropyridine-3-carboxamide]"
14,0.01 to 0.1,"Cc1c(Nc2cc[nH]c(=O)c2C(=O)Nc2ccc(N3CCC(C)(CO)CC3)cc2)cnc2c1NCCO2 [Example 301, N-(4-(4-(hydroxymethyl)-4-methylpiperidin-1-yl)phenyl)-4-((8-methyl-2,3-dihydro-1H-pyrido[2,3-b][1,4]oxazin-7-yl)amino)-2-oxo-1,2-dihydropyridine-3-carboxamide]"
15,≤ 0.01,"Cc1c(Nc2cc[nH]c(=O)c2C(=O)Nc2ccc(N3CCC(C(C)O)CC3)cc2)cnc2c1NCCO2 (stereo not drawn) [Example 302, N-(4-(4-(1-hydroxyethyl)piperidin-1-yl)phenyl)-4-((8-methyl-2,3-dihydro-1H-pyrido[2,3-b][1,4]oxazin-7-yl)amino)-2-oxo-1,2-dihydropyridine-3-carboxamide]"
16,≤ 0.01,"Cc1c(Nc2cc[nH]c(=O)c2C(=O)Nc2ccc(N3CCN(C(=O)c4ccn[nH]4)CC3)cc2)cnc2c1NCCO2 [Example 303, N-(4-(4-(1H-pyrazole-5-carbonyl)piperazin-1-yl)phenyl)-4-((8-methyl-2,3-dihydro-1H-pyrido[2,3-b][1,4]oxazin-7-yl)amino)-2-oxo-1,2-dihydropyridine-3-carboxamide]"
17,≤ 0.01,"Cc1c(Nc2cc[nH]c(=O)c2C(=O)Nc2ccc(N3CCN(C(=O)C4CC(C)(C)C4)CC3)cc2)cnc2c1NCCO2 [Example 304, N-(4-(4-(3,3-dimethylcyclobutane-1-carbonyl)piperazin-1-yl)phenyl)-4-((8-methyl-2,3-dihydro-1H-pyrido[2,3-b][1,4]oxazin-7-yl)amino)-2-oxo-1,2-dihydropyridine-3-carboxamide]"
18,≤ 0.01,"Cc1c(Nc2cc[nH]c(=O)c2C(=O)Nc2ccc(N3CCN(C(=O)C4CC4C)CC3)cc2)cnc2c1NCCO2 (stereo not drawn) [Example 305, 4-((8-methyl-2,3-dihydro-1H-pyrido[2,3-b][1,4]oxazin-7-yl)amino)-N-(4-(4-(2-methylcyclopropane-1-carbonyl)piperazin-1-yl)phenyl)-2-oxo-1,2-dihydropyridine-3-carboxamide]"
